The test system of one assay is L6-myotubes. Description: Glucose uptake (3H-2-deoxy-glucose) in differentiated L6-myotubes. In kind it is cell-based. The conditions noted are these: agonist final concentration 1×10^−5, 50 nM 3H-2-deoxy-glucose, relative to isoproterenol, read-out: Biological example 1: glucose uptake activity compared to that of isoproterenol. As for the experimental part: (§1) L6-myoblasts were grown in Dulbecco's Modified Eagle's Medium (DMEM) containing 4.5 g/l glucose supplemented with 10% fetal bovine serum, 2 mM L-Glutamine, 50 U/ml penicillin, 50 μg/ml streptomycin and 10 mM HEPES. Cells were plated at 1×10^5 cells per ml in 24-well plates. After reaching 90% confluence the cells were grown in medium containing 2% FBS for 7 days where upon cells differentiated into myotubes.
Differentiated L6-myotubes were serum-starved over night in medium containing 0.5% fatty-acid free BSA and stimulated with agonist, final concentration 1×10^−5. After 1 h 40 min cells were washed with warm, glucose free medium or PBS and another portion of agonist was added to glucose free medium. After 20 min the cells were exposed to 50 nM ^3H-2-deoxy-glucose for another 10 min before washed in ice cold glucose free medium or PBS and lysed in 0.2 M NaOH for 1 h in 60° C.

The subject of assay [1] is Intracellular cAMP levels. Description: Measurement of intracellular cAMP levels in differentiated L6 cells. The class given is cell-based. Conditions: Rattus norvegicus, L6, 0.25 h, agonist final concentration 1×10^−5, 15 min, alpha screen cAMP kit, relative to isoproterenol, read-out: Biological example 2: intracellular cAMP activity compared to that of isoproterenol. As for the experimental part:
as §1
Differentiated cells were serum-starved over night and stimulated with agonist, final concentration 1×10^−5, for 15 min in stimulation buffer (HBSS supplemented with 1% BSA, 5 mM HEPES and 1 mM IBMX, pH 7.4). The medium was then aspirated and to end the reaction 100 μL of 95% EtOH was added to each well of a 24-well plate and cells were kept in −20° C. over night. The EtOH was let to evaporate and 500 μL of lysis buffer (1% BSA, 5 mM HEPES and 0.3% Tween-20, pH 7.4) was added to each well before put in −80° C. for 30 min and then kept in −20° C. Intracellular cAMP levels were detected using an alpha screen cAMP kit (6760635D from Perkin Elmer). The activity for each compound is compared to that of isoproterenol.
(In general: cAMP levels reflect the balance of adenylyl cyclase and phosphodiesterase activity.)

Where a name gives a salt, the structure may show the parent alone.

Take `CCCCNC[C@H](O)c1ccc(F)c(O)c1` [Example 24, (R)-5-(2-(Butylamino)-1-hydroxyethyl)-2-fluorophenol acetate]: the Emax is greater than 75% in the assay on L6-myotubes and less than 25% in assay [1].
As to `CCC[C@@H](C)NC[C@H](O)c1cccc(F)c1` [Example 12, (R)-1-(3-fluorophenyl)-2-(((R)-pentan-2-yl)amino)ethan-1-ol], the Emax is greater than 75% in the assay on L6-myotubes and less than 25% in assay [1].
Turning to `CCCC(C)(C)NC[C@H](O)c1cccc(F)c1` [Example 14, (R)-1-(3-Fluorophenyl)-2-((2-methylpentan-2-yl)amino)ethan-1-ol], the figures for the Emax (with L6-myotubes; in assay [1]) were greater than 75% and less than 25%, respectively.
The matching figures for `CCCCNC[C@H](O)c1ccc(F)cc1` [Example 3, (R)-2-(Butylamino)-1-(4-fluorophenyl)ethan-1-ol]: 25 to 50% and less than 25%.
On the same counts, the results for `CC(C)(C)NC[C@H](O)c1cccc(O)c1F` [Example 25, (R)-3-(2-(tert-Butylamino)-1-hydroxyethyl)-2-fluorophenol] are 50 to 75% and 50 to 75%.
On the same counts, the results for `CC(C)(C)NC[C@H](O)c1cccc(F)c1F` [Example 15, (R)-2-(tert-Butylamino)-1-(2,3-difluorophenyl)ethan-1-ol] are greater than 75% and 25 to 50%.
For `CC(C)(C)NC[C@H](O)c1ccc(F)cc1O` [Example 19, (R)-2-(2-(tert-Butylamino)-1-hydroxyethyl)-5-fluorophenol acetate], the Emax with L6-myotubes was 50 to 75%; in assay [1], less than 25%.
As to `CCCCNC[C@H](O)c1cccc(F)c1F` [Example 16, (R)-2-(Butylamino)-1-(2,3-difluorophenyl)ethan-1-ol], the Emax is greater than 75% in the assay on L6-myotubes and less than 25% in assay [1].
Turning to `CC1(NC[C@H](O)c2cccc(F)c2)CC1` [Example 22, (R)-1-(3-fluorophenyl)-2-((1-methylcyclopropyl)amino)ethan-1-ol], the Emax was greater than 75% in the assay with L6-myotubes and less than 25% in assay [1].
The matching figures for `CC(C)(C)NC[C@H](O)c1ccccc1F` [Example 17, (R)-2-(tert-Butylamino)-1-(2-fluorophenyl)ethan-1-ol]: 50 to 75% and less than 25%.
On the same counts, the results for `CC1(NC[C@H](O)c2cccc(F)c2)CCC1` [Example 21, (R)-1-(3-fluorophenyl)-2-((1-methylcyclobutyl)amino)ethan-1-ol] are greater than 75% and 25 to 50%.
On the same counts, the results for `CCCCNC[C@H](O)c1ccc(F)cc1O` [Example 20, (R)-2-(2-(Butylamino)-1-hydroxyethyl)-5-fluorophenol acetate] are greater than 75% and less than 25%.
With `CCCCNC[C@H](O)c1cccc(O)c1F` [Example 26, (R)-3-(2-(Butylamino)-1-hydroxyethyl)-2-fluorophenol], the results for the Emax (with L6-myotubes; in assay [1]) were greater than 75% and 25 to 50%, respectively.
On the same counts, the results for `O[C@@H](CNC1(C(F)(F)F)CC1)c1cccc(F)c1` [Example 30, (R)-1-(3-fluorophenyl)-2-O-(trifluoromethyl)cyclopropyl)amino)ethan-1-ol hydrochloride] are 50 to 75% and less than 25%.
Consider `CCCCNCC(O)c1ccc(F)c(NC(C)=O)c1F` (centres unmarked) [Example 8, N-(3-(2-(Butylamino)-1-hydroxyethyl)-2,6-difluorophenyl)acetamide], for which the Emax with L6-myotubes was 25 to 50%; in assay [1], less than 25%.
For `CCCCNC[C@H](O)c1ccccc1F` [Example 18, (R)-2-(Butylamino)-1-(2-fluorophenyl)ethan-1-ol], the Emax in the assay on L6-myotubes was greater than 75%; in assay [1], less than 25%.
On the same counts, the results for `CC(C)(C)CNC[C@H](O)c1cccc(F)c1` [Example 29, (R)-1-(3-Fluorophenyl)-2-(neopentylamino)ethan-1-ol hydrochloride] are 25 to 50% and less than 25%.
The matching figures for `CCCCNC[C@H](O)c1cccc(F)c1` [Example 4, (R)-2-(Butylamino)-1-(3-fluorophenyl)ethan-1-ol]: greater than 75% and less than 25%.
On the same counts, the results for `CCC[C@@H](C)NC[C@H](O)c1ccc(F)cc1` [Example 10, (R)-1-(4-Fluorophenyl)-2-(((R)-pentan-2-yl)amino)ethan-1-ol] are 50 to 75% and less than 25%.
As for `CC(C)(C)NC[C@H](O)c1cccc(F)c1` [Example 5, (R)-2-(tert-Butylamino)-1-(3-fluorophenyl)ethan-1-ol], the Emax was greater than 75% with L6-myotubes and less than 25% in assay [1].
On the same counts, the results for `Cc1c(F)cccc1[C@@H](O)CNC(C)(C)C` [Example 32, (R)-2-(tert-butylamino)-1-(3-fluoro-2-methylphenyl)ethan-1-ol] are greater than 75% and less than 25%.
The matching figures for `CCCCNCC(O)c1ccc(F)c(F)c1` (centres unmarked) [Example 2, 2-(Butylamino)-1-(3,4-difluorophenyl)ethan-1-ol]: 50 to 75% and less than 25%.
On the same counts, the results for `CCC[C@H](C)NC[C@H](O)c1ccc(F)cc1` [Example 11, (R)-1-(4-Fluorophenyl)-2-(((S)-pentan-2-yl)amino)ethan-1-ol] are 25 to 50% and less than 25%.
For the molecule `CC(C)(C)NC[C@H](O)c1cccc(N)c1F` [Example 27, (R)-1-(3-Amino-2-fluorophenyl)-2-(tert-butylamino)ethan-1-ol], the Emax in the assay on L6-myotubes was greater than 75%; in assay [1], 25 to 50%.
On the same counts, the results for `CCCCNCC(O)c1ccc(F)c(N)c1F` (centres unmarked) [Example 7, 1-(3-Amino-2,4-difluorophenyl)-2-(butylamino)ethan-1-ol] are greater than 75% and less than 25%.
On the same counts, the results for `CCCCNCC(O)c1cc(F)c(N)c(F)c1` (centres unmarked) [Example 6, 1-(4-Amino-3,5-difluorophenyl)-2-(butylamino)ethan-1-ol] are greater than 75% and greater than 75%.
The matching figures for `CCCCNCC(O)c1cc(F)cc(F)c1` (centres unmarked) [Example 1, 2-(Butylamino)-1-(3,5-difluorophenyl)ethan-1-ol]: 50 to 75% and less than 25%.
For `CC(C)(C)NC[C@H](O)c1ccc(F)c(O)c1` [Example 23, (R)-5-(2-(tert-Butylamino)-1-hydroxyethyl)-2-fluorophenol acetate], the values for the Emax (in the assay with L6-myotubes; in assay [1]) were greater than 75% and 50 to 75%, respectively.
The matching figures for `CCCCNC[C@H](O)c1cccc(N)c1F` [Example 28, (R)-1-(3-Amino-2-fluorophenyl)-2-(butylamino)ethan-1-ol dihydrochloride]: 50 to 75% and less than 25%.
On the same counts, the results for `CC(C)(C)NC[C@H](O)c1ccc(F)c(N)c1F` [Example 31, (R)-1-(3-amino-2,4-difluorophenyl)-2-(tert-butylamino)ethan-1-ol hydrochloride] are greater than 75% and less than 25%.
For the molecule `CCC[C@H](C)NC[C@H](O)c1cccc(F)c1` [Example 13, (R)-1-(3-fluorophenyl)-2-(((S)-pentan-2-yl)amino)ethan-1-ol], the figures for the Emax (in the assay with L6-myotubes; in assay [1]) were 50 to 75% and less than 25%, respectively.

These data come from US12280023B2, “Fluorophenyl beta-hydroxyethylamines and their use in the treatment of hyperglycaemia” (ATROGI AB, priority 2017, dated 2025).
